The target in one assay is T1, Human recombinant PDE4B2 (Homo sapiens, UniProt Q07343).
T1 construct: purchased BPS Bioscience
The assay is described as follows: Inhibition of PDE4B4 enzyme activity (PDE Glo Assay). It is filed as biochemical. The conditions noted are these: human recombinant PDE4B2, 50 nM cAMP; read-out: PDE4 IC50. As for the experimental part: Biological Examples Inhibition of PDE4B4 Enzyme Activity
The inhibitory activity of test compounds were determined using the PDE Glo Assay (Promega, V1361). The PDE-Glo Reaction Buffer was prepared (1 mL 5× buffer+4 mL water) and 150 nM solution of test compound dissolved in the Reaction Buffer, followed by 1:3 serial dilutions into Reaction Buffer. […] Human recombinant PDE4B2 (BPS Bioscience) was added to test compound in Reaction Buffer at a concentration of 0.12 nM per reaction. The enzyme and test compound were pre-incubated together at rt for 10 min. 50 nM of the enzyme substrate cAMP was then added to initiate the enzyme reaction, with the reaction terminated after one hour. Termination Buffer (1 mL 5× termination buffer+3.9 mL water+100 μL of 100 mM IBMX (ICN Chemicals, in DMSO)), was added to each reaction well to terminate the reaction. Detection Buffer (1 mL 5×PDE-Glo Detection buffer+3.96 mL water+40 μL PKA (supplied in kit)) was added to the cAMP-enzyme-test compound mix and this secondary reaction proceeded for 20 minutes at rt. An equal volume of Kinase Glo Reagent was then added to the reaction mixture and after 10 min luminescence was measured using a luminometer (EnVision, 0.1 sec read for luminescence). Luminescence values were […] related to levels of cAMP in the reaction mixture. Data were plotted as relative light units (RLU) versus test compound concentration and the IC50 determined using GraphPad Prism 5.0, using a nonlinear curve fit in a single-site binding model.
IC50 determinations for the compounds presented above are seen in the first column of Table 1 (PDE4IC50).

Assay [1] addresses T2, human recombinant beta-2 adrenoreceptors (Homo sapiens, UniProt P07550).
T2 construct: expressed in transfected cells; host or cells: CHO cells
The assay is described as follows: Beta-2 adrenoceptor binding assay ([3H](−)CGP-12177 displacement). The conditions noted are these: CHO cells expressing human beta-2 adrenoreceptors, [3H](−)CGP-12177 0.3 nM, 120 min. As for the experimental part: Beta-2 Adrenoceptor Binding Assay
Test compounds were incubated for 120 min with Chinese hamster oocyte (CHO) cells expressing the human recombinant beta-2 adrenoreceptors. Binding of test compounds to the beta-2 adrenoreceptors was determined by measuring the displacement of the radiolabeled ligand [^3H](−)CGP-12177 (0.3 nM) from the receptor measured by a scintillation counting. Concentration response curves were generated for test compounds and the IC50 (molar concentration of the compound which produced 50% inhibition for the maximal response for that compound) was determined. These assays were performed using a protocol based on the original description of the assay by Joseph et al., (2004) Naun.-Sch. Arch. Pharm.; 369:525-532.
IC50 determinations for the compounds presented above are seen in the second column of Table 1 (Beta 2 IC50).

The target of assay [2] is T2, human recombinant beta-2 adrenoreceptors. Nature of the assay: Functional agonism of human recombinant beta-2 adrenoreceptors expressed in CHO cells (cAMP HTRF). The conditions noted are these: CHO cells expressing human beta-2 adrenoreceptors, cAMP elevation, 30 min. It is filed as cell-based. As for the experimental part:
Functional Agonism of Human Recombinant Beta-2 Adrenoreceptors Expressed in Chinese Hamster Oocytes (CHO)
Test compounds were incubated for 30 min with CHO cells expressing the human recombinant beta-2 adrenoreceptors. Agonism of the receptor was measured by the elevation of intracellular cyclic-AMP over control levels detected using a homogeneous time resolved fluorescence (HTRF) format. Compounds were determined to be “full” or “partial” agonists based on the maximum level of cAMP accumulated compared to the control compound isoproterenol which is a full agonist in this assay system. Concentration response curves were generated for test compounds and the EC50 (molar concentration of the agonist which produced 50% of the maximal response for that compound) was determined. These assays were performed using a protocol based on the original description of the assay by Baker, J. G. (2005) Brit. J. Pharmacol.; 144:317-322.
EC50 determinations for the compounds presented above are seen in the third column of Table 1 (Beta 2 EC50).
Background: TR-FRET usually uses a lanthanide donor and a delayed reading to cut background.

Assay [3] deals with LPS-induced TNF-α release from human peripheral blood mononuclear cells (PBMC). Nature of the assay: Inhibition of LPS-induced TNF-α release from human PBMC. Format: cell-based. The conditions noted are these: LPS 0.4 ng/mL, 6 h, presence or absence of ICI-118551 not given. An excerpt:
Inhibition of Lipopolysaccharide (LPS)-Induced Tumour Necrosis Factor Alpha (TNF-α) Release from Human Peripheral Blood Mononuclear Cells (PBMC)
Human whole blood was drawn from donors and cell purification initiated within two hours. Peripheral blood mononuclear cells (PBMC) were purified using a standard Ficoll gradient purification technique and aliquoted at a concentration of 100,000 cells/well in 96 well plates. Beta-2 adrenoreceptor agonists are also anti-inflammatory for some immune cells expressing the receptor and in this assay they can inhibit tumor necrosis factor-alpha (TNF-α) production. Therefore PBMC were pre-incubated for 30 min in the presence of the beta-2 adrenoreceptor antagonist ICI-118551 [3-(isopropylamino)-1-[(7-methyl-4-indanyl)oxy]butan-2-ol] (10 μM) to determine the PDE4 directed activity of test compounds, and in the absence of ICI-118551 for the combined PDE4 and beta-2 receptor directed activity. Test compounds were dissolved in DMSO and diluted in buffer (final DMSO concentration of 0.1% v/v) and were then added to the cell suspensions and pre-incubated for a further 1 h at 37° C. LPS solution was then added (0.4 ng/mL) and the cells incubated for a further 6 h. At the end of the incubation period the cell supernatants were collected and TNF-α was measured using a Procarta Cytokine Assay Kit (Affymetrix, Santa Clara, Calif.) according to the manufacturers' instructions. Data were analyzed using MiraiBio Masterplex QT v4.0 software (MasterPlex Version 1.0.1.18 Copyright 2008, Hitachi Software Engineering Co., Ltd) and used to extrapolate Mean Fluorescence Intensity (MFI) into concentrations of TNF-α and mean values from replicate wells were determined. Inhibition curves were plotted using a nonlinear curve fit employing a single-site binding model to determine the IC50 value for each test compound in the presence or absence of ICI-118551 using GraphPad Prism 5 for Windows, version 5.02 (GraphPad Software, San Diego Calif.).
EC50 determinations for the compounds presented above are seen in the fourth column of Table 1 (PBMC TNF EC50).

Each structure is given as a SMILES string. Bounds are passed on as bounds.

The term IC50 denotes the concentration needed to halve the response being measured. The term EC50 denotes the concentration needed to bring the measured effect to its halfway point.

T1 sequence (Q07343 1-564 isoform Q07343-2): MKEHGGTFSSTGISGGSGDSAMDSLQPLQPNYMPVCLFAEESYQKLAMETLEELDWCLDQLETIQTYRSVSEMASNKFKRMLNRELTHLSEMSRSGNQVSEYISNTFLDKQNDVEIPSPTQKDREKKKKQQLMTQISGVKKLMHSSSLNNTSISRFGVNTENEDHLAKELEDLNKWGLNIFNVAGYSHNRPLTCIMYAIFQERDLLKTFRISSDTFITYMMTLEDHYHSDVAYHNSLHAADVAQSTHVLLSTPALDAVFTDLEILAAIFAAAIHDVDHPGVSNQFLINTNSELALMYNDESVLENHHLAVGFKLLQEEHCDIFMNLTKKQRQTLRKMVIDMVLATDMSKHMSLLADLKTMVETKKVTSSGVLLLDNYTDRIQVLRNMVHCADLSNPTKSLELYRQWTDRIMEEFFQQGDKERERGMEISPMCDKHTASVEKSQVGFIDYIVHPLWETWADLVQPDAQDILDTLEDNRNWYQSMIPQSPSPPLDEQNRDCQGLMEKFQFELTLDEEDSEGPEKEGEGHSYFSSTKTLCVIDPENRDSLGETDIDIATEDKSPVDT
T2 sequence (P07550 whole entry): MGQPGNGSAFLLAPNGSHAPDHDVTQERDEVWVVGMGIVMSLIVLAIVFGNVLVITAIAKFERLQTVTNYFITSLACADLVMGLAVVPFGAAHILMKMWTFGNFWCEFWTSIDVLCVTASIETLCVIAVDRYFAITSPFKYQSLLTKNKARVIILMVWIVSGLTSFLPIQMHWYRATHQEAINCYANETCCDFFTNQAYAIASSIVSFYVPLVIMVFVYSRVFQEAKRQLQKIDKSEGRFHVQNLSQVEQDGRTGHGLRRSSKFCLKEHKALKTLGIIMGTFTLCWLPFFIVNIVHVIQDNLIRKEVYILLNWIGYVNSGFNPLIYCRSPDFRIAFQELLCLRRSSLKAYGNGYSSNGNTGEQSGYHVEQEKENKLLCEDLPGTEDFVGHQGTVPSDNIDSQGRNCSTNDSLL

Consider `COc1cccc(Nc2c(C(N)=O)cnc3c(C)cc(S(=O)(=O)c4cccc(C(=O)Nc5ccc(C#CCCCCNC[C@H](O)c6ccc(O)c7[nH]c(=O)ccc67)cc5)c4)cc23)c1` [Example 7, (R)-6-((3-((4-(6-((2-hydroxy-2-(8-hydroxy-2-oxo-1,2-dihydroquinolin-5-yl)ethyl)amino)hex-1-yn-1-yl)phenyl)carbamoyl)phenyl)sulfonyl)-4-((3-methoxyphenyl)amino)-8-methylquinoline-3-carboxamide], for which the IC50 (on Human recombinant PDE4B2; in assay [1]) was under 0.1 µM in each case. Also, the half-maximal effective concentration (EC50) in assay [2] and in assay [3] was under 0.1 µM in each case.

As to `COc1cccc(Nc2c(C(N)=O)cnc3c(C)cc(S(=O)(=O)c4cccc(C(=O)N(C)CCCCCCNC[C@H](O)c5ccc(O)c(CO)c5)c4)cc23)c1` [Example 44, (R)-6-[[3-[[6-[[2-Hydroxy-2-(4-hydroxy-3-(hydroxymethyl]phenyl]ethyl]amino)hexyl](methyl)carbamoyl]phenyl]sulfonyl]-4-[(3-methoxyphenyl)amino]-8-methylquinoline-3-carboxamide], the IC50 on Human recombinant PDE4B2 was under 0.1 µM; in assay [1], over 0.3 µM. The EC50 in assay [2] was over 0.3 µM; in assay [3], under 0.1 µM.

For `COc1cccc(Nc2c(C(N)=O)cnc3c(C)cc(S(=O)(=O)CCCCCCCCCCCNC[C@H](O)c4cc(O)cc5c4OCC(=O)N5)cc23)c1` [Example 46, (R)-6-((11-((2-hydroxy-2-(6-hydroxy-3-oxo-3,4-dihydro-2H-benzo[b][1,4]oxazin-8-yl)ethyl)amino)undecyl)sulfonyl)-4-((3-methoxyphenyl)amino)-8-methylquinoline-3-carboxamide], the half-inhibitory concentration (IC50) (on Human recombinant PDE4B2; in assay [1]) was under 0.1 µM throughout. For the same molecule, the EC50 in assay [2] was under 0.3 µM; in assay [3], under 0.1 µM.

Turning to `COc1cccc(Nc2c(C(N)=O)cnc3c(C)cc(S(=O)(=O)c4cccc(C(=O)N5CCC(OCCCCCCNC[C@H](O)c6ccc(O)c7[nH]c(=O)ccc67)CC5)c4)cc23)c1` [Example 15, (R)-6-((3-(4-((6-((2-hydroxy-2-(8-hydroxy-2-oxo-1,2-dihydroquinolin-5-yl)ethyl)amino)hexyl)oxy)piperidine-1-carbonyl)phenyl)sulfonyl)-4-((3-methoxyphenyl)amino)-8-methylquinoline-3-carboxamide], the IC50 (at Human recombinant PDE4B2; in assay [1]) was under 0.1 µM in each case. For the same molecule, the EC50 in assay [2] and in assay [3] was under 0.1 µM each time.

`COc1cccc(Nc2c(C(N)=O)cnc3c(C)cc(S(=O)(=O)c4cccc(C(=O)Nc5ccc(CCOCCCCCCNC[C@H](O)c6ccc(O)c7[nH]c(=O)ccc67)cc5)c4)cc23)c1` [Example 39, (R)-6-((3-((4-(2-((6-((2-hydroxy-2-(8-hydroxy-2-oxo-1,2-dihydroquinolin-5-yl)ethyl)amino)hexyl)oxy)ethyl)phenyl)carbamoyl)phenyl)sulfonyl)-4-((3-methoxyphenyl)amino)-8-methylquinoline-3-carboxamide]: the half-inhibitory concentration (IC50) (on Human recombinant PDE4B2; in assay [1]) was under 0.1 µM in each case. In addition, the concentration for a half-maximal effect (EC50) in assay [2] and in assay [3] was under 0.1 µM in each case.

`COc1cccc(Nc2c(C(N)=O)cnc3c(C)cc(S(=O)(=O)c4cccc(C(=O)Nc5ccc(C6(CCCCNC[C@H](O)c7ccc(O)c8[nH]c(=O)ccc78)SCCS6)cc5)c4)cc23)c1` [Example 37, (R)-6-((3-((4-(2-(4-((2-hydroxy-2-(8-hydroxy-2-oxo-1,2-dihydroquinolin-5-yl)ethyl)amino)butyl)-1,3-dithiolan-2-yl)phenyl)carbamoyl)phenyl)sulfonyl)-4-((3-methoxyphenyl)amino)-8-methylquinoline-3-carboxamide]: the IC50 (on Human recombinant PDE4B2; in assay [1]) was under 0.1 µM throughout. Also, the EC50 in assay [2] and in assay [3] was under 0.1 µM each time.

For the molecule `COc1cccc(Nc2c(C(N)=O)cnc3c(C)cc(S(=O)(=O)c4cccc(C(=O)Nc5ccc(C#CCCCNC[C@H](O)c6ccc(O)c(NC=O)c6)cc5)c4)cc23)c1` [Example 31, (R)-6-[[3-[[4-[5-[[2-(3-Formamido-4-hydroxyphenyl)-2-hydroxyethyl]amino]pent-1-ynyl]phenyl]carbamoyl]phenyl]sulfonyl]-4-[(3-methoxyphenyl)amino]-8-methylquinoline-3-carboxamide], the results for the IC50 (at Human recombinant PDE4B2; in assay [1]) were under 0.1 µM and under 0.3 µM, respectively. Further, the EC50 in assay [2] was under 0.3 µM; in assay [3], under 0.1 µM.

In the case of `COc1cccc(Nc2c(C(N)=O)cnc3c(C)cc(S(=O)(=O)c4cccc(C(=O)N(C)CCCCCCNC[C@H](O)c5ccc(O)c(NC=O)c5)c4)cc23)c1` [Example 28, (R)-6-((3-((6-((2-(3-formamido-4-hydroxyphenyl)-2-hydroxyethyl)amino)hexyl)(methyl)carbamoyl)phenyl)sulfonyl)-4-((3-methoxyphenyl)amino)-8-methylquinoline-3-carboxamide], the IC50 was under 0.1 µM at Human recombinant PDE4B2 and over 0.3 µM in assay [1]. Besides, the EC50 in assay [2] and in assay [3] was under 0.1 µM throughout.

Turning to `COc1cccc(Nc2c(C(N)=O)cnc3c(C)cc(S(=O)(=O)c4cccc(C(=O)NCCCCCCNC[C@H](O)c5ccc(O)c(CO)c5)c4)cc23)c1` [Example 41, (R)-6-[[3-[[6-[[2-Hydroxy-2-[4-hydroxy-3-(hydroxymethyl)phenyl]ethyl]amino]hexyl]carbamoyl]phenyl]sulfonyl]-4-[(3-methoxyphenyl)amino]-8-methylquinoline-3-carboxamide], the IC50 (at Human recombinant PDE4B2; in assay [1]) was under 0.1 µM throughout. The EC50 in assay [2] and in assay [3] was under 0.1 µM throughout.

For `COc1cccc(Nc2c(C(N)=O)cnc3c(C)cc(S(=O)(=O)c4cccc(C(=O)NCCCCCCCCNC[C@H](O)c5ccc(O)c6[nH]c(=O)ccc56)c4)cc23)c1` [Example 1, (R)-6-[[3-[[8-[[2-Hydroxy-2-(8-hydroxy-2-oxo-1,2-dihydroquinolin-5-yl)ethyl]amino]octyl]carbamoyl]phenyl]sulfonyl]-4-[(3-methoxyphenyl)amino]-8-methylquinoline-3-carboxamide], the 50% inhibitory concentration (IC50) (on Human recombinant PDE4B2; in assay [1]) was under 0.1 µM in each case. The concentration for a half-maximal effect (EC50) in assay [2] and in assay [3] was under 0.1 µM each time.
